The values that follow are results of earlier work, collected in US20080279967A1, “Composition and method for increasing the metabolism of free fatty acids and facilitating a favorable blood lipid” (priority 2007, published 2008).

The subject of the data set is rats. The conditions noted are these: administration to rats.

In the case of `C[N+](C)(C)CCCC(=O)[O-]` [γ-butyrobetaine, 4-trimethylamniobutyrate], the “nitric oxide concentrations in blood” value was “increases” and the vasodilating activities entry is “elevated”.
